Experimental data as given in publication PMC9736874, “Development of Hydroxamate Derivatives Containing a Pyrazoline Moiety as APN Inhibitors to Overcome Angiogenesis” (Molecules, 2022).

What was measured:
[1] = target: T1, porcine kidney aminopeptidase N (APN) (Sus scrofa, UniProt P15145); experiment: Enzymatic inhibition assay against APN in vitro (L-Leu-p-nitroanilide substrate); format: biochemical; conditions: soluble APN from porcine kidney microsomal, 37 °C, 30 min; triplicate, mean ± SD
T1 construct: purchased Enzo Life Sciences; host or cells: porcine kidney microsomes (tissue-derived)
T1 sequence (P15145 1-963): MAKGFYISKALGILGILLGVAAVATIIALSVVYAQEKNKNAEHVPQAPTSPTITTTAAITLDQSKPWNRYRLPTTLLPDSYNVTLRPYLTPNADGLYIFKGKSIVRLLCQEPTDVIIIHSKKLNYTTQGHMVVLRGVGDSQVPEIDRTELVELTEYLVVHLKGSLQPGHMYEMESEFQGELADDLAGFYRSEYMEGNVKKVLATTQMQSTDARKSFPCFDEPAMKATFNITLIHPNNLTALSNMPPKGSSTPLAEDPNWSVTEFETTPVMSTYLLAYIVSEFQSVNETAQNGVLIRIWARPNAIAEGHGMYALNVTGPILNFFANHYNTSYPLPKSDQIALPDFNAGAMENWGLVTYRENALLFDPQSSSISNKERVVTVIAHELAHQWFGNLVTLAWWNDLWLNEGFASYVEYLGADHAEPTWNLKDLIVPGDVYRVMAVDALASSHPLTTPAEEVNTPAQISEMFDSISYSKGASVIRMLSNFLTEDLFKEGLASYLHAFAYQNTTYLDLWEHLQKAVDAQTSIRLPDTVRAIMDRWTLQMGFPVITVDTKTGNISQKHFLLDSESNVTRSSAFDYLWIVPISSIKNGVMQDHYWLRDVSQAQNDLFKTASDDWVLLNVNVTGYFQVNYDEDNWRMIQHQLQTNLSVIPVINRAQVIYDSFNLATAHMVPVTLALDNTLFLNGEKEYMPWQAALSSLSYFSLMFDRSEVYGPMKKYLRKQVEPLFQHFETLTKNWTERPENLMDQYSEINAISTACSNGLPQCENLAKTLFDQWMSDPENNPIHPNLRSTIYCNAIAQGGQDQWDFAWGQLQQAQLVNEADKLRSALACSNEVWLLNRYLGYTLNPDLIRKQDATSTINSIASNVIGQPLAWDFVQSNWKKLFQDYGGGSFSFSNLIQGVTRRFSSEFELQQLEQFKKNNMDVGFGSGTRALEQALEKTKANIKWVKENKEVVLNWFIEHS
Method: The enzymatic inhibitory activities of target compounds were evaluated using L-Leu-p-nitroanilide (Sigma-Aldrich, St. Louis, MO, USA) as substrate and soluble APN from porcine kidney microsomal (Enzo Life Sciences, Farmingdale, NY, USA) as enzyme. Firstly, the substrate was dissolved in DMSO to a concentration of 16 mmol/L and the enzyme was dissolved in buffer solution of 50 mM PBS (pH = 7.2) for a concentration of 0.15 IU/L. Subsequently, inhibitors (40 μL) and PBS (145 μL) were added into the 96-well plates, followed by the addition of substrate (5 μL) and enzyme (10 μL). After incubation at 37 °C for 30 min, the absorbance values were measured at 405 nm with a plate reader (Varioskan, Thermo Fisher Scientific, Waltham, MA, USA).

Compound | IC50 [1] [nM] | melting point [°C]
CC(=O)N1N=C(c2ccccc2)CC1c1ccccc1OCC(=O)NO (centres unmarked) [Compound 13a, reference compound] | 320 ± 10 | 
NC(=O)N1N=C(c2ccccc2)CC1c1ccccc1OCC(=O)NO (centres unmarked) [Compound 13b, reference compound] | 160 ± 10 | 
NC(=O)N1N=C(c2c(Cl)cccc2Cl)CC1c1ccccc1OCC(=O)NO (centres unmarked) [Compound 13c, reference compound] | 59 ± 2 | 
CC(=O)N1N=C(c2ccccc2Br)CC1c1ccccc1OCC(=O)NO (centres unmarked) [Compound 14a, 2-(2-(1-Acetyl-3-(2-bromophenyl)-4,5-dihydro-1H-pyrazol-5-yl)phenoxy)-N-hydroxy acetamide] | 46 ± 3 | 162 to 164
CC(=O)N1N=C(c2ccccc2OCc2ccccc2)CC1c1ccccc1OCC(=O)NO (centres unmarked) [Compound 14aa, 2-(2-(1-Acetyl-3-(2-(benzyloxy)phenyl)-4,5-dihydro-1H-pyrazol-5-yl)phenoxy)-N-hydroxyacetamide] | 17 ± 1 | 162 to 164
CC(=O)N1N=C(c2cccc(Br)c2)CC1c1ccccc1OCC(=O)NO (centres unmarked) [Compound 14b, 2-(2-(1-Acetyl-3-(3-bromophenyl)-4,5-dihydro-1H-pyrazol-5-yl)phenoxy)-N-hydroxy acetamide] | 320 ± 30 | 152 to 154
NC(=O)N1N=C(c2ccccc2OCc2ccccc2)CC1c1ccccc1OCC(=O)NO (centres unmarked) [Compound 14bb, 3-(2-(Benzyloxy)phenyl)-5-(2-(2-(hydroxyamino)-2-oxoethoxy)phenyl)-4,5-dihydro-1H-pyrazole-1-carboxamide] | 15 ± 1 | 176 to 178
CC(=O)N1N=C(c2ccc(Br)cc2)CC1c1ccccc1OCC(=O)NO (centres unmarked) [Compound 14c, 2-(2-(1-Acetyl-3-(4-bromophenyl)-4,5-dihydro-1H-pyrazol-5-yl)phenoxy)-N-hydroxy acetamide] | 4400 ± 300 | 202 to 204
CC(=O)N1N=C(c2ccccc2OCc2ccccc2Br)CC1c1ccccc1OCC(=O)NO (centres unmarked) [Compound 14cc, 2-(2-(1-Acetyl-3-(2-((2-bromobenzyl)oxy)phenyl)-4,5-dihydro-1H-pyrazol-5-yl)phenoxy)-N-hydroxyacetamide] | 68 ± 4 | 82 to 84
COc1ccccc1C1=NN(C(C)=O)C(c2ccccc2OCC(=O)NO)C1 (centres unmarked) [Compound 14d, 2-(2-(1-Acetyl-3-(2-methoxyphenyl)-4,5-dihydro-1H-pyrazol-5-yl)phenoxy)-N-hydroxy acetamide] | 320 ± 10 | 170 to 172
NC(=O)N1N=C(c2ccccc2OCc2ccccc2Br)CC1c1ccccc1OCC(=O)NO (centres unmarked) [Compound 14dd, 3-(2-((2-Bromobenzyl)oxy)phenyl)-5-(2-(2-(hydroxyamino)-2-oxoethoxy)phenyl)-4,5-dihydro-1H-pyrazole-1-carboxamide] | 230 ± 10 | 92 to 94
COc1cccc(C2=NN(C(C)=O)C(c3ccccc3OCC(=O)NO)C2)c1 (centres unmarked) [Compound 14e, 2-(2-(1-Acetyl-3-(3-methoxyphenyl)-4,5-dihydro-1H-pyrazol-5-yl)phenoxy)-N-hydroxy acetamide] | 370 | 170 to 172
CC(=O)N1N=C(c2ccccc2OCc2cccc(Br)c2)CC1c1ccccc1OCC(=O)NO (centres unmarked) [Compound 14ee, 2-(2-(1-Acetyl-3-(2-((3-bromobenzyl)oxy)phenyl)-4,5-dihydro-1H-pyrazol-5-yl)phenoxy)-N-hydroxyacetamide] | 31 ± 2 | 164 to 166
COc1ccc(C2=NN(C(C)=O)C(c3ccccc3OCC(=O)NO)C2)cc1 (centres unmarked) [Compound 14f, 2-(2-(1-Acetyl-3-(4-methoxyphenyl)-4,5-dihydro-1H-pyrazol-5-yl)phenoxy)-N-hydroxy acetamide] | 3800 ± 200 | 120 to 122
NC(=O)N1N=C(c2ccccc2OCc2cccc(Br)c2)CC1c1ccccc1OCC(=O)NO (centres unmarked) [Compound 14ff, 3-(2-((3-Bromobenzyl)oxy)phenyl)-5-(2-(2-(hydroxyamino)-2-oxoethoxy)phenyl)-4,5-dihydro-1H-pyrazole-1-carboxamide] | 58 ± 3 | 120 to 122
CC(=O)N1N=C(c2ccccc2F)CC1c1ccccc1OCC(=O)NO (centres unmarked) [Compound 14g, 2-(2-(1-Acetyl-3-(2-fluorophenyl)-4,5-dihydro-1H-pyrazol-5-yl)phenoxy)-N-hydroxy acetamide] | 250 ± 10 | 176 to 178
CC(=O)N1N=C(c2ccccc2OCc2ccc(Br)cc2)CC1c1ccccc1OCC(=O)NO (centres unmarked) [Compound 14gg, 2-(2-(1-Acetyl-3-(2-((4-bromobenzyl)oxy)phenyl)-4,5-dihydro-1H-pyrazol-5-yl)phenoxy)-N-hydroxyacetamide] | 560 ± 40 | 96 to 98
CC(=O)N1N=C(c2ccccc2Cl)CC1c1ccccc1OCC(=O)NO (centres unmarked) [Compound 14h, 2-(2-(1-Acetyl-3-(2-chlorophenyl)-4,5-dihydro-1H-pyrazol-5-yl)phenoxy)-N-hydroxy acetamide] | 29 ± 2 | 166 to 168
NC(=O)N1N=C(c2ccccc2OCc2ccc(Br)cc2)CC1c1ccccc1OCC(=O)NO (centres unmarked) [Compound 14hh, 3-(2-((4-Bromobenzyl)oxy)phenyl)-5-(2-(2-(hydroxyamino)-2-oxoethoxy)phenyl)-4,5-dihydro-1H-pyrazole-1-carboxamide] | 550 ± 40 | 96 to 98
CC(=O)N1N=C(c2ccccc2I)CC1c1ccccc1OCC(=O)NO (centres unmarked) [Compound 14i, 2-(2-(1-Acetyl-3-(2-iodophenyl)-4,5-dihydro-1H-pyrazol-5-yl)phenoxy)-N-hydroxy acetamide] | 15 ± 1 | 174 to 176
NC(=O)N1N=C(c2ccccc2I)CC1c1ccccc1OCC(=O)NO (centres unmarked) [Compound 14j, 5-(2-(2-(Hydroxyamino)-2-oxoethoxy)phenyl)-3-(2-iodophenyl)-4,5-dihydro-1H-pyrazole-1-carboxamide] | 44 ± 3 | 164 to 166
CC(=O)N1N=C(c2ccccc2C)CC1c1ccccc1OCC(=O)NO (centres unmarked) [Compound 14k, 2-(2-(1-Acetyl-3-(o-tolyl)-4,5-dihydro-1H-pyrazol-5-yl)phenoxy)-N-hydroxyacetamide] | 210 ± 10 | 170 to 172
CC(=O)N1N=C(c2ccc(Cl)cc2Cl)CC1c1ccccc1OCC(=O)NO (centres unmarked) [Compound 14l, 2-(2-(1-Acetyl-3-(2,4-dichlorophenyl)-4,5-dihydro-1H-pyrazol-5-yl)phenoxy)-N-hydroxyacetamide] | 580 ± 40 | 128 to 130
COc1cccc(OC)c1C1=NN(C(C)=O)C(c2ccccc2OCC(=O)NO)C1 (centres unmarked) [Compound 14m, 2-(2-(1-Acetyl-3-(2,6-dimethoxyphenyl)-4,5-dihydro-1H-pyrazol-5-yl)phenoxy)-N-hydroxyacetamide] | 200 ± 10 | 178 to 180
COc1cccc(OC)c1C1=NN(C(N)=O)C(c2ccccc2OCC(=O)NO)C1 (centres unmarked) [Compound 14n, 3-(2,6-Dimethoxyphenyl)-5-(2-(2-(hydroxyamino)-2-oxoethoxy)phenyl)-4,5-dihydro-1H-pyrazole-1-carboxamide] | 440 ± 30 | 212 to 214
CC(=O)N1N=C(c2cccc3ccccc23)CC1c1ccccc1OCC(=O)NO (centres unmarked) [Compound 14p, 2-(2-(1-Acetyl-3-(naphthalen-1-yl)-4,5-dihydro-1H-pyrazol-5-yl)phenoxy)-N-hydroxy acetamide] | 310 ± 20 | 198 to 200
CC(=O)N1N=C(c2ccccc2I)CC1c1cccc(Br)c1OCC(=O)NO (centres unmarked) [Compound 14q, 2-(2-(1-Acetyl-3-(2-iodophenyl)-4,5-dihydro-1H-pyrazol-5-yl)-6-bromophenoxy)-N-hydroxyacetamide] | 3500 ± 200 | 96 to 98
NC(=O)N1N=C(c2ccccc2I)CC1c1cccc(Br)c1OCC(=O)NO (centres unmarked) [Compound 14r, 5-(3-Bromo-2-(2-(hydroxyamino)-2-oxoethoxy)phenyl)-3-(2-iodophenyl)-4,5-dihydro-1H-pyrazole-1-carboxamide] | 3400 ± 300 | 140 to 142
